Assay results reported in patent US9725442B2, “Heterocyclic derivative having PGD2 receptor antagonist activity” (Shionogi & Co., Ltd., priority 2011, dated 2017).

Target: human ether-a-go-go related gene (hERG) channel (Homo sapiens (Human), UniProt Q12809)
Test: hERG test (IKr, whole cell patch clamp in HEK293 cells)
Type: cell-based
Settings: 1 μmol/L of the compound, HEK293 cells expressing hERG
Excerpt: For the purpose of assessing risk of an electrocardiogram QT interval prolongation, effects on delayed rectifier K+ current (IKr), which plays an important role in the ventricular repolarization process of the compound of the present invention, was studied using HEK293 cells expressing human ether-a-go-go related gene (hERG) channel.
After a cell was retained at a membrane potential of −80 mV by whole cell patch clamp method using an automated patch clamp system (PatchXpress 7000A, Axon Instruments Inc.) and given leakage potential at −50 mV, IKr induced by depolarization pulse stimulation at +40 mV for 2 seconds and, further, repolarization pulse stimulation at −50 mV for 2 seconds was recorded. After the generated current was stabilized, extracellular solution (NaCl: 135 mmol/L, KCl: 5.4 mmol/L, […]: 0.3 mmol/L, CaCl2.2H2O: 1.8 mmol/L, MgCl2.6H2O: 1 mmol/L, glucose: 10 mmol/L, HEPES (4-(2-hydroxyethyl)-1-piperazineethanesulfonic acid): 10 mmol/L, pH=7.4) in which a compound of the present invention had been dissolved at an objective concentration was applied to the cell under the room temperature condition for 10 minutes. From the recording IKr, an absolute value of the tail peak current was measured based on the current value at the resting membrane potential using an analysis software (DataXpress ver. 2, Molecular Devices Corporation).

Chain of human ether-a-go-go related gene (hERG) channel (Q12809 whole entry): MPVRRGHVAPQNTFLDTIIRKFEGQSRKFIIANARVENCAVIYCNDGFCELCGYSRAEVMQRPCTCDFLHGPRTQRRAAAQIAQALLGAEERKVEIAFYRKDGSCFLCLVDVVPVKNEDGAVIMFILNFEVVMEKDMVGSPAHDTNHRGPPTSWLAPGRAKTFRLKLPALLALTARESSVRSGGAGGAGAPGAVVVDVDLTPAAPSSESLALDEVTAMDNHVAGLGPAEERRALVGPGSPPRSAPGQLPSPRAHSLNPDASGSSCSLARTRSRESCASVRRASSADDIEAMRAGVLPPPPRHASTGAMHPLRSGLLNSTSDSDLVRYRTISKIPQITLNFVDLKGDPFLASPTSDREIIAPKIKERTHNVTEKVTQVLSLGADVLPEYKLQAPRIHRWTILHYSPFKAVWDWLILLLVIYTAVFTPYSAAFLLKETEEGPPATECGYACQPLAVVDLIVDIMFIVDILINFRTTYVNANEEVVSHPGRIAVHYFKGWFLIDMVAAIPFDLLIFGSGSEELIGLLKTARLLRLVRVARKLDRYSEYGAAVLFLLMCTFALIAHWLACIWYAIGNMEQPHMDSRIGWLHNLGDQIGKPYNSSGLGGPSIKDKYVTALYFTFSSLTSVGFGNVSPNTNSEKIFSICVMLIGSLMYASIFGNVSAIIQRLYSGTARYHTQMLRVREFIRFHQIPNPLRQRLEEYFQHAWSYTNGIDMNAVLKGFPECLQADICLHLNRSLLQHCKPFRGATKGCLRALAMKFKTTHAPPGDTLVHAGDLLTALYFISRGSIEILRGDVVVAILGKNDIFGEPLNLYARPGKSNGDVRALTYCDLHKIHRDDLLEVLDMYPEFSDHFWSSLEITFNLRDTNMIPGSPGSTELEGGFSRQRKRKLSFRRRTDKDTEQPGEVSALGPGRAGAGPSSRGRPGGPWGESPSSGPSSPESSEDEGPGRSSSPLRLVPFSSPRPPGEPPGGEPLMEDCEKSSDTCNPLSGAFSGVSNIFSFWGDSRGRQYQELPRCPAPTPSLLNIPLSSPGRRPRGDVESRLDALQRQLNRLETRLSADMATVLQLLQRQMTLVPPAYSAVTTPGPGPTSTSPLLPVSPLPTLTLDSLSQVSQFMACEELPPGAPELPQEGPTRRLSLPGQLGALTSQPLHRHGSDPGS

## CC(C)Oc1ccc(S(=O)(=O)N2C[C@@H](C)[C@@H](n3nc(CC(=O)O)c4ccc(F)cc43)C2)cc1 [Compound I-37]
  % inhibition of IKr tail peak current: 7.1%
